The values that follow come from PubChem BioAssay AID1259407 (Chemical Carcinogenesis Research Information System (CCRIS), 2018).

Activity calls are given as the source filed them. How the calls were made is not given here.

The test system of the data set is CCRIS mutagenicity, Ames/micronucleus/aberration tests. Briefly: CCRIS mutagenicity studies.
[1] abbreviates: Test System: AMES SALMONELLA TYPHIMURIUM, Strain/Indicator: TA98, Metabolic Activation: NONE, Method: STANDARD PLATE.
[2] abbreviates: Test System: AMES SALMONELLA TYPHIMURIUM, Strain/Indicator: TA98, Metabolic Activation: RAT, LIVER, S-9, AROCLOR 1254, Method: STANDARD PLATE.
Where [3] appears, read: Test System: AMES SALMONELLA TYPHIMURIUM, Strain/Indicator: TA100, Metabolic Activation: NONE, Method: STANDARD PLATE.
The mark [4] stands for this setting: Test System: AMES SALMONELLA TYPHIMURIUM, Strain/Indicator: TA100, Metabolic Activation: RAT, LIVER, S-9, AROCLOR 1254, Method: STANDARD PLATE.
Where [5] appears, read: Test System: AMES SALMONELLA TYPHIMURIUM, Strain/Indicator: TA97, Metabolic Activation: NONE, Method: PREINCUBATION

As to `O=C1CC(c2ccc(O)cc2)Oc2cc(O)cc(O)c21` (stereo not drawn), the mutagenic call (Test System: AMES SALMONELLA TYPHIMURIUM, Strain/Indicator: TA98, Metabolic Activation: HAMSTER, LIVER, S-9, AROCLOR 1254, Method: STANDARD PLATE) was “inactive; negative”; the mutagenic call under setting [1] was “inactive; negative”; the mutagenic call under setting [2] is “inactive; negative”; the mutagenic call (Test System: AMES SALMONELLA TYPHIMURIUM, Strain/Indicator: TA100, Metabolic Activation: HAMSTER, LIVER, S-9, AROCLOR 1254, Method: STANDARD PLATE) was “inactive; negative”; the mutagenic call under setting [3] is “inactive; negative”; the mutagenic call under setting [4] is “inactive; negative”. Also, the mutagenic call runs as follows: (Test System: AMES SALMONELLA TYPHIMURIUM, Strain/Indicator: TA1535, Metabolic Activation: HAMSTER, LIVER, S-9, AROCLOR 1254, Method: STANDARD PLATE) “inactive; negative”; (Test System: AMES SALMONELLA TYPHIMURIUM, Strain/Indicator: TA1535, Metabolic Activation: NONE, Method: STANDARD PLATE) “inactive; negative”; (Test System: AMES SALMONELLA TYPHIMURIUM, Strain/Indicator: TA1535, Metabolic Activation: RAT, LIVER, S-9, AROCLOR 1254, Method: STANDARD PLATE) “inactive; negative”; (Test System: AMES SALMONELLA TYPHIMURIUM, Strain/Indicator: TA1537, Metabolic Activation: HAMSTER, LIVER, S-9, AROCLOR 1254, Method: STANDARD PLATE) “inactive; negative”; (Test System: AMES SALMONELLA TYPHIMURIUM, Strain/Indicator: TA1537, Metabolic Activation: NONE, Method: STANDARD PLATE) “inactive; negative”; (Test System: AMES SALMONELLA TYPHIMURIUM, Strain/Indicator: TA1537, Metabolic Activation: RAT, LIVER, S-9, AROCLOR 1254, Method: STANDARD PLATE) “inactive; negative”. For the same compound, the mutagenic call by setting is: (Test System: AMES SALMONELLA TYPHIMURIUM, Strain/Indicator: TA1538, Metabolic Activation: HAMSTER, LIVER, S-9, AROCLOR 1254, Method: STANDARD PLATE) “inactive; negative”; (Test System: AMES SALMONELLA TYPHIMURIUM, Strain/Indicator: TA1538, Metabolic Activation: NONE, Method: STANDARD PLATE) “inactive; negative”; (Test System: AMES SALMONELLA TYPHIMURIUM, Strain/Indicator: TA1538, Metabolic Activation: RAT, LIVER, S-9, AROCLOR 1254, Method: STANDARD PLATE) “inactive; negative”.
On to `CC(C)(C)C1=CC(=O)C=CC1=O`, for which the mutagenic call under setting [5] was “inactive; negative”; the mutagenic call (Test System: AMES SALMONELLA TYPHIMURIUM, Strain/Indicator: TA97, Metabolic Activation: RAT, LIVER, S-9, PCB, Method: PREINCUBATION) was “inactive; negative”; the mutagenic call under setting [1] is “inactive; negative”; the mutagenic call (Test System: AMES SALMONELLA TYPHIMURIUM, Strain/Indicator: TA98, Metabolic Activation: RAT, LIVER, S-9, AROCLOR 1254, Method: PREINCUBATION) is “inactive; negative”; the mutagenic call under setting [2] was “inactive; negative”; the mutagenic call (Test System: AMES SALMONELLA TYPHIMURIUM, Strain/Indicator: TA98, Metabolic Activation: RAT, LIVER, S-9, PCB, Method: PREINCUBATION) is “inactive; negative”. Also, the mutagenic call by setting is: under setting [3], “inactive; negative”; (Test System: AMES SALMONELLA TYPHIMURIUM, Strain/Indicator: TA100, Metabolic Activation: RAT, LIVER, S-9, AROCLOR 1254, Method: PREINCUBATION) “inactive; negative”; under setting [4], “inactive; negative”; (Test System: AMES SALMONELLA TYPHIMURIUM, Strain/Indicator: TA100, Metabolic Activation: RAT, LIVER, S-9, PCB, Method: PREINCUBATION) “inactive; negative”; (Test System: AMES SALMONELLA TYPHIMURIUM, Strain/Indicator: TA102, Metabolic Activation: NONE, Method: PREINCUBATION) “inactive; negative”; (Test System: AMES SALMONELLA TYPHIMURIUM, Strain/Indicator: TA102, Metabolic Activation: RAT, LIVER, S-9, PCB, Method: PREINCUBATION) “inactive; negative”. Moreover, the mutagenic call runs as follows: (Test System: CHINESE HAMSTER V-79, Strain/Indicator: V-79 (HGPRT)/6-THIOGUANINE, Metabolic Activation: NONE) “inactive; negative”; (Test System: CHINESE HAMSTER V-79, Strain/Indicator: V-79 (HGPRT)/6-THIOGUANINE, Metabolic Activation: RAT, LIVER, HEPATOCYTES) “inactive; negative”.
Consider `OC1c2ccccc2Oc2ccccc21`, for which the mutagenic call reads like this: under setting [5], “active; positive”; (Test System: AMES SALMONELLA TYPHIMURIUM, Strain/Indicator: TA97, Metabolic Activation: RAT, LIVER, S-9, PHENOBARBITAL AND 5,6-BENZOFLAVONE, Method: PREINCUBATION) “active; positive”; (Test System: AMES SALMONELLA TYPHIMURIUM, Strain/Indicator: TA98, Metabolic Activation: NONE, Method: PREINCUBATION) “active; positive”; (Test System: AMES SALMONELLA TYPHIMURIUM, Strain/Indicator: TA98, Metabolic Activation: RAT, LIVER, S-9, PHENOBARBITAL AND 5,6-BENZOFLAVONE, Method: PREINCUBATION) “active; positive”; (Test System: AMES SALMONELLA TYPHIMURIUM, Strain/Indicator: TA100, Metabolic Activation: NONE, Method: PREINCUBATION) “inactive; negative”; (Test System: AMES SALMONELLA TYPHIMURIUM, Strain/Indicator: TA100, Metabolic Activation: RAT, LIVER, S-9, PHENOBARBITAL AND 5,6-BENZOFLAVONE, Method: PREINCUBATION) “inactive; negative”. Moreover, the mutagenic call (Test System: AMES SALMONELLA TYPHIMURIUM, Strain/Indicator: TA2637, Metabolic Activation: NONE, Method: PREINCUBATION) was “active; positive” and the mutagenic call (Test System: AMES SALMONELLA TYPHIMURIUM, Strain/Indicator: TA2637, Metabolic Activation: RAT, LIVER, S-9, PHENOBARBITAL AND 5,6-BENZOFLAVONE, Method: PREINCUBATION) was “inactive; negative”.
For the compound `c1ccc2c(c1)-c1cccc3cccc-2c13`, the mutagenic call is “inactive; negative” (Test System: AMES SALMONELLA TYPHIMURIUM, Strain/Indicator: TA97, Metabolic Activation: NONE, Method: STANDARD PLATE); “active; positive” (Test System: AMES SALMONELLA TYPHIMURIUM, Strain/Indicator: TA97, Metabolic Activation: RAT, LIVER, S-9, AROCLOR 1254, Method: TAPED-PLATE); “active; positive” (Test System: AMES SALMONELLA TYPHIMURIUM, Strain/Indicator: TA97, Metabolic Activation: RAT, LIVER, S-9, PCB, Method: STANDARD PLATE); “inactive; negative” under setting [1]; “inactive; negative” (Test System: AMES SALMONELLA TYPHIMURIUM, Strain/Indicator: TA98, Metabolic Activation: RAT, LIVER, S-9, AROCLOR 1254 (4%), Method: STANDARD PLATE); “active; positive” (Test System: AMES SALMONELLA TYPHIMURIUM, Strain/Indicator: TA98, Metabolic Activation: RAT, LIVER, S-9, AROCLOR 1254, Method: FLUCTUATION). The mutagenic call reads like this: (Test System: AMES SALMONELLA TYPHIMURIUM, Strain/Indicator: TA98, Metabolic Activation: RAT, LIVER, S-9, AROCLOR 1254, Method: TAPED-PLATE) “active; positive”; (Test System: AMES SALMONELLA TYPHIMURIUM, Strain/Indicator: TA98, Metabolic Activation: RAT, LIVER, S-9, PCB, Method: STANDARD PLATE) “active; positive”; under setting [3], “inactive; negative”; (Test System: AMES SALMONELLA TYPHIMURIUM, Strain/Indicator: TA100, Metabolic Activation: RAT, LIVER, S-9, AROCLOR 1254, Method: FLUCTUATION) “active; positive”; (Test System: AMES SALMONELLA TYPHIMURIUM, Strain/Indicator: TA100, Metabolic Activation: RAT, LIVER, S-9, AROCLOR 1254, Method: TAPED-PLATE) “active; positive”; (Test System: AMES SALMONELLA TYPHIMURIUM, Strain/Indicator: TA100, Metabolic Activation: RAT, LIVER, S-9, PCB, Method: STANDARD PLATE) “active; positive”. For the same compound, the mutagenic call was “inactive; negative” (Test System: AMES SALMONELLA TYPHIMURIUM, Strain/Indicator: TA102, Metabolic Activation: RAT, LIVER, S-9, AROCLOR 1254, Method: TAPED-PLATE); “inactive; negative” (Test System: AMES SALMONELLA TYPHIMURIUM, Strain/Indicator: TA1535, Metabolic Activation: RAT, LIVER, S-9, AROCLOR 1254, Method: TAPED-PLATE); “active; positive” (Test System: AMES SALMONELLA TYPHIMURIUM, Strain/Indicator: TA1537, Metabolic Activation: RAT, LIVER, S-9, AROCLOR 1254, Method: TAPED-PLATE); “inactive; negative” (Test System: UDS RAT HEPATOCYTES, Strain/Indicator: THY INCORP, Metabolic Activation: NONE, Method: IN VIVO-IN VITRO).
